According to US20070259435A1, “Intravenous Drug Administration and Blood Sampling Model in the Awake Rat” (priority 2004, published 2007):
Where a name gives a salt, the structure may show the parent alone. Read-outs that look alike come from different tables or passages of the source.

How the values were obtained:
in vivo [1] = settings: male, Sprague-Dawley, rat, po, 5 mg/kg, single oral 5 mg/kg, multiple sampling
Source text: (§1) Male SPF Sprague-Dawley rats (200-300 g, Charles River, Germany) were used throughout the study. Animals were allowed to acclimatize for one week prior to each part of the study. Tap water and food were available ad libitum.
For multiple blood sampling via the tail vein the animals were placed in a rodent cylindrical restrainer developed by the Scientific Instrument Division (Johnson & Johnson, Pharmaceutical Research and Development, division of Janssen Pharmaceutica). The rat's tail was warmed using an infra red lamp to facilitate the sampling. Venous blood was collected by a 27 G needle into Multivette 600KE tubes containing EDTA (Sarstedt, Germany).
(§2) The plasma concentration profile and major PK parameters of different chemical structures were investigated following oral administration. Blood samples were taken from the tail vein with either the multiple or single sampling method.
(§3) For both methods, the same formulation per compound was used to ensure any differences in results were not due to formulation effects. Test compounds JNJ1 (a farnesyl transferase compound), JNJ2 (galantamine hydrobromide) and JNJ3 (a CRF antagonist) were formulated in demineralized water or a 10% hydroxypropyl- -β cyclodextrin (HP- - ? CD) solution at final concentrations of between 0.25 and 1 mg/ml. All formulations were stored at room temperature, protected from light and analysed quantitatively. Animals were orally dosed by gastric intubation using a volume of 10 ml/kg.
(§4) After dosing the compound, blood samples were taken at the desired time points. For the single sampling method, three animals per time point were sacrificed by decapitation and blood was collected by exsanguination into 10 ml B-D Sterile EDTA K3 Vacutainer tubes. For the multiple sampling technique 0.3 ml venous blood was repeatedly collected from the tail vein as described above. For each compound, 3 rats were used for a complete plasma concentration time profile. Plasma samples were analysed for the appropriate compound using individual qualified research LC-MS/MS methods as described in section 2.4.
For all compounds, individual calibration curves were constructed in blank EDTA rat plasma (covering the expected concentration range). Independent quality control samples (QC) were prepared in rat EDTA plasma at four concentration levels in duplicate, covering the entire calibration range. The study samples, calibration and QC samples were extracted using a generic sample preparation method. After sample preparation, the (reconstituted) residues were pipetted in polypropylene auto sampler vials and analysed using individual qualified research methods.
Aliquots of the residues were analysed using multiple reaction monitoring (MRM) liquid chromatography coupled to tandem mass spectrometry (LC-MS/MS) (API-3000 or 4000, Applied Biosystems, Canada). Chromatographic separation was obtained on commercial base deactivated C-18 columns of different brands, depending on the chromatographic behaviour of the compounds to be analysed. The mass spectrometers were operated in the TurbolonSpray TM mode (positive ion electrospray ionisation). For each compound the mass spectrometer was optimised to measure a selective parent-daughter transition. Integration of the chromatographic peaks was performed using the Analist software version 1.2 (Applied Biosystem, Canada). Final concentrations were calculated by interpolation from the calibration curves response, using a linear regression model. Both accuracy and precision were within expectations for all compounds, allowing accurate PK calculations
A limited PK analysis was performed using WinNonlin™ Professional (Version 3.3). For the single sampling method, a non-compartmental data analysis was carried out on the mean plasma concentration profile (n=3/time point). For the multiple sampling method, a non-compartmental data analysis was carried out on the plasma concentration time profiles obtained from each animal (n=3). […]

in vivo [2] = settings: male, Sprague-Dawley, rat, single oral 5 mg/kg, Mean
Source text: as §1, §2, §3
as §4, with “For each compound, 3 rats were used for a complete plasma concentration time profile.” left out
For all compounds, individual calibration curves were constructed in blank EDTA rat plasma (covering the expected concentration range). […] After sample preparation, the (reconstituted) residues were pipetted in polypropylene auto sampler vials and analysed using individual qualified research methods.
Aliquots of the residues were analysed using multiple reaction monitoring (MRM) liquid chromatography coupled to tandem mass spectrometry (LC-MS/MS) (API-3000 or 4000, Applied Biosystems, Canada). Chromatographic separation was obtained on commercial base deactivated C-18 columns of different brands, depending on the chromatographic behaviour of the compounds to be analysed. […] Final concentrations were calculated by interpolation from the calibration curves response, using a linear regression model. […]
A limited PK analysis was performed using WinNonlin™ Professional (Version 3.3). […] Average values were then calculated to compare the multiple and the single sampling method. The PK parameters calculated were observed maximum plasma concentration (Cmax), the time to reach the maximum plasma concentration (Tmax), plasma half-life (t1/2) and exposure of the compound calculated by the area under the curve (AUClast and AUCinf). […]

Which AUC(0-inf) (in vivo [1]; Mean, read-out: AUCinf (extrapolated exposure)) does the source give for `COc1ccc2c3c1O[C@H]1C[C@@H](O)C=C[C@@]31CCN(C)C2` [JNJ2, galantamine hydrobromide] here?
The AUC(0-inf) was 1180 ng·h/mL.

What about the AUC(0-t) (in vivo [1]; Mean, read-out: AUClast (observed exposure)) of the same compound?
Its AUC(0-t) is 1100 ng·h/mL.

What about the Cmax (in vivo [1]; Mean, read-out: Cmax (maximum plasma concentration)) of the same compound?
The Cmax was 113 ng/mL.

What about the half-life (in vivo [1]; Mean, read-out: t1/2 (half life) (converted)) of the same compound?
Its half-life is 5.75 h.

And the AUC(0-inf) (in vivo [1]; Rat 1, read-out: AUCinf (extrapolated exposure))?
The AUC(0-inf) was 1440 ng·h/mL.

And the AUC(0-t) (in vivo [1]; Rat 1, read-out: AUClast (observed exposure))?
Its AUC(0-t) is 1310 ng·h/mL.

What about the Cmax (in vivo [1]; Rat 1, read-out: Cmax (maximum plasma concentration)) of the same compound?
Its Cmax is 135 ng/mL.

What about the half-life (in vivo [1]; Rat 1, read-out: t1/2 (half life) (converted)) of the same compound?
The half-life was 6.81 h.

And the AUC(0-inf) (in vivo [1]; Rat 2, read-out: AUCinf (extrapolated exposure))?
The AUC(0-inf) was 1180 ng·h/mL.

What about the AUC(0-t) (in vivo [1]; Rat 2, read-out: AUClast (observed exposure)) of the same compound?
Its AUC(0-t) is 1120 ng·h/mL.

And the Cmax (in vivo [1]; Rat 2, read-out: Cmax (maximum plasma concentration))?
The Cmax was 96.3 ng/mL.

What about the half-life (in vivo [1]; Rat 2, read-out: t1/2 (half life) (converted)) of the same compound?
Its half-life is 4.89 h.

And the AUC(0-inf) (in vivo [1]; Rat 3, read-out: AUCinf (extrapolated exposure))?
The AUC(0-inf) was 913 ng·h/mL.

What about the AUC(0-t) (in vivo [1]; Rat 3, read-out: AUClast (observed exposure)) of the same compound?
Its AUC(0-t) is 866 ng·h/mL.

What about the Cmax (in vivo [1]; Rat 3, read-out: Cmax (maximum plasma concentration)) of the same compound?
Its Cmax is 108 ng/mL.

What about the half-life (in vivo [1]; Rat 3, read-out: t1/2 (half life) (converted)) of the same compound?
The half-life was 5.65 h.

And the AUC(0-inf) (in vivo [2]; read-out: AUCinf (extrapolated exposure))?
The AUC(0-inf) was 1440 ng·h/mL.

And the AUC(0-t) (in vivo [2]; read-out: AUClast (observed exposure))?
Its AUC(0-t) is 1380 ng·h/mL.

And the Cmax (in vivo [2]; read-out: Cmax (maximum plasma concentration))?
The Cmax was 155 ng/mL.

What about the half-life (in vivo [2]; read-out: t1/2 (half life) (converted)) of the same compound?
The half-life was 4.93 h.
